Experimental data as given in publication PMC11125359 (Pharmaceuticals, 2024).

Legend:
α-glucosidase = assay: α-Glucosidase inhibition (anti-diabetic); assay type: biochemical; details: equal concentrations (1000 µg/mL); mean ± SE
α-amylase = assay: α-Amylase inhibition (anti-diabetic); assay type: biochemical; details: equal concentrations (1000 µg/mL); mean ± SE
[1] = target: acetylcholinesterase (AChE) (Homo sapiens, UniProt P22303); assay: biochemical; details: same concentration (1000 µg/mL); mean ± SE
[2] = Iron-reducing power (IRP); details: equal concentrations (1000 µg/mL); mean ± SE, three replicates
Method: (§1) All in vitro biological activities were assessed in the tested compounds at equal concentrations (1000 µg/mL). All assays were carried out in triplicate.
In vitro biological activities
(§2) The total antioxidant capacity (TAC) was determined by analyzing the green phosphate/Mo5+ complex at a wavelength (λ) of 695 nm, following the procedure described by Prieto
(§3) et al. Samples (at each concentration) were mixed with a reagent solution containing 0.3 N sulfuric
(§4) acid, 28 mM sodium phosphate, and 4 mM ammonium molybdate. Methanol (80%) was used in place
(§5) of the sample for the blank. The tubes were sealed and incubated in a boiling water bath for 90
(§6) minutes. After cooling to room temperature, the absorbance was measured at 695 nm against the
(§7) blank. Ascorbic acid was used at the same concentrations as a standard. The antioxidant capacity was
(§8) expressed as mg gallic acid equivalent per gram weight.
(§9) The iron reducing power was determined as µg/mL using the method proposed by Oyaizu
(§10) In brief, 1ml of the tested sample (at each concentration) was combined with 1mL of 200mM
(§11) sodium phosphate buffer (pH 6.6) and 1mL of 1% potassium ferricyanide. The mixture was then
(§12) incubated at 50°C for 20 minutes, followed by the addition of 1mL of trichloroacetic acid (10%). After
(§13) centrifugation at 2000rpm for 10 minutes, the upper layer solution (2.5 mL) was mixed with 2.5 mL of double deionized water and 1mL of fresh ferric chloride (0.1%). The absorbance was measured at
(§14) 700nm against a blank prepared without the sample. Ascorbic acid was used at the same
(§15) concentrations as a standard. A high absorbance at 700nm indicates a higher reducing power in the
(§16) The 1,1-Diphenyl-2-picryl-hydrazyl (DPPH) radical scavenging activities were evaluated using the method described by Rahman et al. An antioxidant substance capable of donating a
(§17) hydrogen atom to a solution containing DPPH- can reduce the stable free radical, causing the solution
(§18) to change color from violet to pale yellow. The remaining DPPH- radical was quantified by
(§19) nm using a spectroscopic method. Two milliliters of a DPPH solution (100 µM) in ethanol were mixed
(§20) with 2 mL of the sample (at each concentration). The reaction mixture for each concentration was
(§21) thoroughly vortexed and then incubated in the dark at room temperature for 30 minutes. The
(§22) absorbance was then measured spectrophotometrically at 518 nm against a blank (ethanol). For the
(§23) control, 2 mL of ethanol was added instead of the sample and run simultaneously with the test.
(§24) Ascorbic acid was used at the same concentrations as a positive control. Percent inhibition of the
(§25) DPPH free radical was calculated. The median inhibitory concentration (IC 50) for each tested
(§26) The procedure for the 2,2'-azinobis-(3-ethylbenzothiazoline-6-sulfonic acid) (ABTS) assay
(§27) potassium persulfate solution (2.4 mM). The working solution was prepared by mixing the two stock
(§28) solutions in equal quantities and allowing them to react at room temperature in a dark place for 14
(§29) hours. The solution was then diluted by mixing 1 mL of ABTS solution with 60 mL of methanol to
(§30) was prepared for each assay. The tested samples (at each concentration) were allowed to react with 1
(§31) mL of the ABTS solution, and the absorbance was taken at 734 nm after 7 minutes using a
(§32) spectrophotometer. The ABTS scavenging capacities of the samples were compared with that of
(§33) ascorbic acid (at the same concentrations).

[3] = target: bovine serum albumin (BSA) (Bos taurus, UniProt P02769); details: equal concentrations (1000 µg/mL); mean ± SE
[4] = test system: proteinase enzyme (trypsin); assay: Proteinase enzyme inhibition (anti-inflammatory); assay type: biochemical; details: equal concentrations (1000 µg/mL); mean ± SE
[5] = Total antioxidant capacity (TAC), phosphomolybdenum method; details: equal concentrations (1000 µg/mL); mean ± SE, three replicates
Method: as §1
In vitro biological activities
as §2, §3, §4, §5, §6, §7, §8, §9, §10, §11, §12, §13, §14, §15, §16, §17, §18, §19, §20, §21, §22, §23, §24, §25, §26, §27, §28, §29, §30, §31, §32, §33

[6] = ABTS radical scavenging assay; details: equal concentrations (1000 µg/mL); mean ± SE
Method: as §1
In vitro biological activities
as §2, §3, §4, §5, §6, §7, §8, §9, §10, §11, §12, §13, §14, §15, §16, §17, §18, §19, §20, §21, §22, §23, §24, §25, §26, §27, §28, §29, §30, §31, §32, §33

[7] = DPPH radical-scavenging activity; details: read-out: DPPH (IC50); mean ± SE, three replicates
Method: In vitro biological activities
as §16, §17, §18, §19, §20, §21, §22, §23, §24, §25

Chain of bovine serum albumin (BSA) (P02769 25-607): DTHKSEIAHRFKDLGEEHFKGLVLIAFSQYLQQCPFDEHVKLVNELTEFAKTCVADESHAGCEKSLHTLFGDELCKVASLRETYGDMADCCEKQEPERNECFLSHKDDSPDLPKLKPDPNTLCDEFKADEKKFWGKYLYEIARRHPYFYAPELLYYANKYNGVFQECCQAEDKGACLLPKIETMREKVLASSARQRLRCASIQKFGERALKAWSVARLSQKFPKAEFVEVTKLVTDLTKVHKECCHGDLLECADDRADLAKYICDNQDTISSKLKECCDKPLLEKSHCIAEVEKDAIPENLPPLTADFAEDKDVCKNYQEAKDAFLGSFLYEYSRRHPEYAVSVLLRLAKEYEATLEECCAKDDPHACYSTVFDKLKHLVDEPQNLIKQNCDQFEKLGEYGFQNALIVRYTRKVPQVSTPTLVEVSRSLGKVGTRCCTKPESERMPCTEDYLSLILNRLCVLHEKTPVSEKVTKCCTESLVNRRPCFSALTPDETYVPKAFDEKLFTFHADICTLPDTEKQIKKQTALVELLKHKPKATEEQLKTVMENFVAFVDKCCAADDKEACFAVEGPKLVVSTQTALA
Chain of acetylcholinesterase (AChE) (P22303 32-614, species assumed): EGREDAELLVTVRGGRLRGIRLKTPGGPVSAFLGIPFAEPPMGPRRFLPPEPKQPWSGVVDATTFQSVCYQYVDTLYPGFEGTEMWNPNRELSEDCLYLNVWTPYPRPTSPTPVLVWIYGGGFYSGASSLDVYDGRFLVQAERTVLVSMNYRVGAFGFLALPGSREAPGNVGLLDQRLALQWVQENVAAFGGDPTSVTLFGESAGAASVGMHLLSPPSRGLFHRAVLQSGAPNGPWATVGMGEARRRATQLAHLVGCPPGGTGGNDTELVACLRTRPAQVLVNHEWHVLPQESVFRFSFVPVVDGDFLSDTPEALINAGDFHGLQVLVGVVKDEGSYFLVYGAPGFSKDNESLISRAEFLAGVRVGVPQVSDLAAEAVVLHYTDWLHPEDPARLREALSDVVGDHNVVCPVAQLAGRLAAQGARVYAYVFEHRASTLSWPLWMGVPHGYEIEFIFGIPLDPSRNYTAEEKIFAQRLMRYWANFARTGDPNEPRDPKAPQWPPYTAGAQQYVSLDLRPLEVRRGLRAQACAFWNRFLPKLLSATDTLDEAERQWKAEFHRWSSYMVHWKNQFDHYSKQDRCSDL

| Compound | Inhibition (%) α-Glucosidase (α-glucosidase) | Inhibition (%) α-Amylase (α-amylase) | inhibition at 1000 µg/mL [1] | Iron-Reducing Power (IRP) [2] | Inhibition (%) Protein Denaturation [3] | Inhibition (%) Proteinase [4] | Total Antioxidant Capacity (TAC) [5] | ABTS (%) inhibition [6] | IC50 [7] |
| --- | --- | --- | --- | --- | --- | --- | --- | --- | --- |
| C[C@H]1O[C@H](O[C@H]2[C@H](O)[C@@H](O)[C@@H](O[C@H]3[C@H](O)[C@@H](O)C(O)O[C@@H]3CO)O[C@@H]2CO)[C@H](O)[C@@H](O)[C@@H]1N[C@H]1C=C(CO)[C@@H](O)[C@H](O)[C@H]1O (stereo partly drawn) [Acarbose, reference compound] | 53.94 ± 0.01% | 76.58 ± 0.01% | – | – | – | – | – | – | – |
| Cc1ccc(NC(=O)c2c(Nc3ccccc3)n[nH]c2/N=C/c2ccc(N3CCCCC3)cc2)cc1 [5b] | 7.85 ± 0.01% | 9.12 ± 0.01% | 12.28 ± 0.01% | 10.01 ± 0.02 µg/mL | 7.83 ± 0.01% | 6.81 ± 0.01% | 15.26 ± 0.06 mg Gallic Acid/g | 22.03 ± 0.01% | 59.8 ± 0.03 µM |
| Cc1nn(-c2ccccc2)c(Cl)c1C=Nc1[nH]nc(Nc2ccccc2)c1C(=O)Nc1ccc(Cl)cc1 [6c] | 17.99 ± 0.03% | 20.92 ± 0.03% | 28.16 ± 0.02% | 22.95 ± 0.05 µg/mL | 17.97 ± 0.02% | 15.62 ± 0.02% | 34.99 ± 0.13 mg Gallic Acid/g | 50.54 ± 0.03% | 34.58 ± 0.02 µM |
| COc1ccc(Nc2n[nH]c(N=Cc3c(C)n(C)n(-c4ccccc4)c3=O)c2C(=O)Nc2ccccc2)cc1 [7d] | 15.61 ± 0.03% | 18.16 ± 0.03% | 24.44 ± 0.01% | 19.92 ± 0.04 µg/mL | 15.59 ± 0.02% | 13.56 ± 0.02% | 30.36 ± 0.11 mg Gallic Acid/g | 43.85 ± 0.03% | 40.53 ± 0.02 µM |
| Cc1ccc(NC(=O)c2c(Nc3ccccc3)n[nH]c2N=Cc2c(C)n(C)n(-c3ccccc3)c2=O)cc1 [7b] | 15.38 ± 0.03% | 17.88 ± 0.03% | 24.07 ± 0.01% | 19.62 ± 0.04 µg/mL | 15.36 ± 0.02% | 13.35 ± 0.02% | 29.91 ± 0.11 mg Gallic Acid/g | 43.19 ± 0.03% | 42.45 ± 0.02 µM |
| COc1ccc(Nc2n[nH]c(N=Cc3c(C)nn(-c4ccccc4)c3Cl)c2C(=O)Nc2ccc(Cl)cc2)cc1 [6f] | 15.67 ± 0.03% | 18.22 ± 0.03% | 24.52 ± 0.01% | 19.98 ± 0.04 µg/mL | 15.64 ± 0.02% | 13.60 ± 0.02% | 30.47 ± 0.11 mg Gallic Acid/g | 44.00 ± 0.03% | 37.6 ± 0.02 µM |
| Cc1c(C=Nc2[nH]nc(Nc3ccccc3)c2C(=O)Nc2ccc(Cl)cc2)c(=O)n(-c2ccccc2)n1C [7c] | 15.41 ± 0.03% | 17.91 ± 0.03% | 24.11 ± 0.01% | 19.65 ± 0.04 µg/mL | 15.38 ± 0.02% | 13.38 ± 0.02% | 29.96 ± 0.11 mg Gallic Acid/g | 43.27 ± 0.03% | 40.72 ± 0.02 µM |
| O=C1O[C@H]([C@@H](O)CO)C(O)=C1O [Ascorbic Acid, reference compound] | – | – | – | 71.85 ± 0.05 µg/mL | – | – | 79.10 ± 0.11 mg Gallic Acid/g | 41.25 ± 0.01% | 29.3 ± 0.01 µM |
| Cc1ccc(NC(=O)c2c(Nc3ccccc3)n[nH]c2N=Cc2c(C)nn(-c3ccccc3)c2Cl)cc1 [6b] | 17.96 ± 0.03% | 20.89 ± 0.03% | 28.11 ± 0.02% | 22.91 ± 0.04 µg/mL | 17.94 ± 0.02% | 15.60 ± 0.02% | 34.93 ± 0.13 mg Gallic Acid/g | 50.45 ± 0.03% | 36.02 ± 0.02 µM |
| O=C(Nc1ccc(Cl)cc1)c1c(Nc2ccccc2)n[nH]c1/N=C/c1ccc(N2CCCCC2)cc1 [5c] | 15.43 ± 0.03% | 17.94 ± 0.03% | 24.15 ± 0.01% | 19.68 ± 0.04 µg/mL | 15.41 ± 0.02% | 13.40 ± 0.02% | 30.01 ± 0.11 mg Gallic Acid/g | 43.34 ± 0.03% | 42.86 ± 0.02 µM |
| COc1ccc(Nc2n[nH]c(N=Cc3c(C)n(C)n(-c4ccccc4)c3=O)c2C(=O)Nc2ccc(C)cc2)cc1 [7e] | 8.07 ± 0.02% | 9.38 ± 0.02% | 12.62 ± 0.01% | 10.29 ± 0.02 µg/mL | 8.05 ± 0.01% | 4.81 ± 0.01% | 15.68 ± 0.06 mg Gallic Acid/g | 22.65 ± 0.01% | 51.98 ± 0.03 µM |
| COc1ccc(Nc2n[nH]c(N=Cc3c(C)nn(-c4ccccc4)c3Cl)c2C(=O)Nc2ccc(C)cc2)cc1 [6e] | 15.69 ± 0.03% | 18.25 ± 0.03% | 24.56 ± 0.01% | 20.02 ± 0.04 µg/mL | 15.67 ± 0.02% | 13.63 ± 0.02% | 30.52 ± 0.11 mg Gallic Acid/g | 44.08 ± 0.03% | 38.94 ± 0.02 µM |
| COc1ccc(Nc2n[nH]c(N=Cc3c(C)nn(-c4ccccc4)c3Cl)c2C(=O)Nc2ccccc2)cc1 [6d] | 15.64 ± 0.03% | 18.19 ± 0.03% | 24.48 ± 0.01% | 19.95 ± 0.04 µg/mL | 15.62 ± 0.02% | 13.58 ± 0.02% | 30.42 ± 0.11 mg Gallic Acid/g | 43.93 ± 0.03% | 40.11 ± 0.02 µM |
| Cc1nn(-c2ccccc2)c(Cl)c1C=Nc1[nH]nc(Nc2ccccc2)c1C(=O)Nc1ccccc1 [6a] | 15.35 ± 0.03% | 17.85 ± 0.03% | 24.03 ± 0.01% | 19.58 ± 0.04 µg/mL | 15.33 ± 0.02% | 13.33 ± 0.02% | 29.86 ± 0.11 mg Gallic Acid/g | 43.12 ± 0.03% | 43.35 ± 0.02 µM |
